Data on two molecules can be found in EP0297547A2, “Use of hydrolyzable tannins for treatement and prophylaxis of AIDS” (LEAD CHEMICAL COMPANY LTD., priority 1987, dated 1989).

Each structure is given as a SMILES string.

The subject of data set [1] is ddy mice. Put plainly: LD50 by probit method. It is filed as in vivo. The source says: 50 % lethal dose (LD₅₀) of Coriariin A to ddy mice was obtained by probit method.
For data set [2], the system named is Hela-S3 cells. Put plainly: Cytotoxicity to Hela-S3 cells (colony formation). In kind it is cell-based. The conditions noted are these: sensitized 2 hours at 37°C, colonies counted in 72 hours. As to the method: Hela-S3 cells (1 x 10⁴ cells/ml) were applied to an Eagle's MEM medium or a 10 % fresh calf serum-containing Eagle's MEM medium, and Agrimoniin was added thereto to sensitize the cells at 37°C for 2 hours. The concentration of the Agrimoniin added was variously varied. After sensitization, the cells were washed with Hanks' solution and then incubated in a CO₂ incubator containing a 10 % fresh calf serum-containing Eagle's MEM medium at 37°C for 72 hours. […] In addition, IC₅₀ of Agrimoniin to Hela-S3 cells in the 10 % fresh calf serum-containing Eagle's MEM medium was improved to be 57.4 µg/ml. From these experiments, it is noted that ellagitannins have a relatively strong direct cytotoxic action but the cytotoxic action may be reduced by addition of proteins such as serum to the culture medium.

In the case of `O=C(O[C@@H]1O[C@@H]2COC(=O)c3cc(O)c(O)c(O)c3-c3c(cc(O)c(O)c3O)C(=O)O[C@H]2[C@H](OC(=O)c2cc(O)c(O)c(O)c2)[C@H]1OC(=O)c1cc(O)c(O)c(O)c1)c1cc(O)c(O)c(Oc2c(C(=O)O[C@H]3O[C@@H]4COC(=O)c5cc(O)c(O)c(O)c5-c5c(cc(O)c(O)c5O)C(=O)O[C@H]4[C@H](OC(=O)c4cc(O)c(O)c(O)c4)[C@H]3OC(=O)c3cc(O)c(O)c(O)c3)cc(O)c(O)c2O)c1` [Coriariin A], the LD₅₀ in data set [1] (Intraabdominal, Female) is recorded as 119.1 mg/kg; in data set [1] (Intraabdominal, Male), 120.2 mg/kg; in data set [1] (Intravenous, Female) it was 36.8 mg/kg; in data set [1] (Intravenous, Male), 37.5 mg/kg; in data set [1] (Peroral, Female) it was 1000 or more mg/kg; in data set [1] (Peroral, Male), 1000 or more mg/kg.
With `O=C(O[C@H]1O[C@@H]2COC(=O)c3cc(O)c(O)c(O)c3-c3c(cc(O)c(O)c3O)C(=O)O[C@H]2[C@@H]2OC(=O)c3cc(O)c(O)c(O)c3-c3c(cc(O)c(O)c3O)C(=O)O[C@@H]12)c1cc(O)c(O)c(Oc2c(C(=O)O[C@H]3O[C@@H]4COC(=O)c5cc(O)c(O)c(O)c5-c5c(cc(O)c(O)c5O)C(=O)O[C@H]4[C@@H]4OC(=O)c5cc(O)c(O)c(O)c5-c5c(cc(O)c(O)c5O)C(=O)O[C@@H]34)cc(O)c(O)c2O)c1` [Agrimoniin], the “50 % cell-inhibiting concentration (IC₅₀)” value is 57.4 µg/mL in data set [2] (10 % fresh calf serum-containing Eagle's MEM medium) and 7.3 µg/mL in data set [2] (Eagle's MEM medium).
